From publication PMC6695839, “Interspecies Variation in NCMN-O-Demethylation in Liver Microsomes from Various Species” (Molecules, 2019)

Columns and labels:
[1] = system: CYP1A in rat liver microsomes (RLM); assay: Inhibition of NCMN-O-demethylation by CYP inhibitors in rat liver microsomes; details: RLM; 10 µM NCMN; 100 µM furafylline, 10 µM sulfaphenazole, 200 µM troleandomycin, 500 µM 1-ABT
[2] = system: CYP1A in cynomolgus monkey liver microsomes (CyLM); assay: Inhibition of NCMN-O-demethylation by CYP inhibitors in cynomolgus monkey liver microsomes; details: CyLM; 10 µM NCMN; 100 µM furafylline, 10 µM sulfaphenazole, 200 µM troleandomycin, 500 µM 1-ABT
[3] = molecular target: T1, CYP1A in mouse liver microsomes (MLM) (Mus musculus, UniProt P00186); assay: Inhibition of NCMN-O-demethylation by CYP inhibitors in mouse liver microsomes; details: MLM; 10 µM NCMN; 100 µM furafylline, 10 µM sulfaphenazole, 200 µM troleandomycin, 500 µM 1-ABT
T1 sequence (P00186 2-513): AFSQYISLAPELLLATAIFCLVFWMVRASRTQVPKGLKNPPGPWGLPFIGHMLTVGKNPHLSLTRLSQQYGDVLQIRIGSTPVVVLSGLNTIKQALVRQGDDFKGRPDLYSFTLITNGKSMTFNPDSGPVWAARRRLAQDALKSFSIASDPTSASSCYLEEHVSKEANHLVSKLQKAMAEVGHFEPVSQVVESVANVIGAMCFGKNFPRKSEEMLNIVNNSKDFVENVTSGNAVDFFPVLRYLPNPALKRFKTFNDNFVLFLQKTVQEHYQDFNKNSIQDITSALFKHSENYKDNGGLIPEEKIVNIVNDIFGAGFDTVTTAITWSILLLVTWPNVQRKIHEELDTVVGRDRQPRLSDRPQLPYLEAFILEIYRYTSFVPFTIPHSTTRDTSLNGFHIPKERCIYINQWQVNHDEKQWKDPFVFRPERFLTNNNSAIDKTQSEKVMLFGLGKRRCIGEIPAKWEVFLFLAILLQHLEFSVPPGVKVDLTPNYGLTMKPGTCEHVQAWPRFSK

[4] = system: CYP1A in minipig liver microsomes (PLM); assay: Inhibition of NCMN-O-demethylation by CYP inhibitors in minipig liver microsomes; details: PLM; 10 µM NCMN; 100 µM furafylline, 10 µM sulfaphenazole, 200 µM troleandomycin, 500 µM 1-ABT
[5] = molecular target: T2, CYP1A in beagle dog liver microsomes (DLM) (Canis lupus familiaris, UniProt P56592); assay: Inhibition of NCMN-O-demethylation by CYP inhibitors in beagle dog liver microsomes; details: DLM; 10 µM NCMN; 100 µM furafylline, 10 µM sulfaphenazole, 200 µM troleandomycin, 500 µM 1-ABT
T2 sequence (P56592 2-512): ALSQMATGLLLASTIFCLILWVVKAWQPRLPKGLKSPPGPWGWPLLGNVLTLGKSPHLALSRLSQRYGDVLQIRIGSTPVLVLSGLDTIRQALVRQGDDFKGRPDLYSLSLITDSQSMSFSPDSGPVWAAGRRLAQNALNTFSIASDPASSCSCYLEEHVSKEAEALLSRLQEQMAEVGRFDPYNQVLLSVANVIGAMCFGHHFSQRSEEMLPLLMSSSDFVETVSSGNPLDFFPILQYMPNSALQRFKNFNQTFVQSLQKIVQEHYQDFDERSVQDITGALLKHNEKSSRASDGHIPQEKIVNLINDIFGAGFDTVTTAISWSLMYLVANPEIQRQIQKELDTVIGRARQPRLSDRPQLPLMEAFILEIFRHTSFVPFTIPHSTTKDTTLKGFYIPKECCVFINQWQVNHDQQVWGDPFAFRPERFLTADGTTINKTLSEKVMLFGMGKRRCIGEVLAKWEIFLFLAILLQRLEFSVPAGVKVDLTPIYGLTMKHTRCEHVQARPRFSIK

[6] = system: CYP1A (NCMN O-demethylation); assay: Inhibition of NCMN-O-demethylation by CYP inhibitors in rat liver microsomes; details: rat, rat liver microsomes, pH 7.4, probe NCMN (various concentrations; formation of NCHN)
[7] = system: CYP1A (NCMN O-demethylation); assay: Inhibition of NCMN-O-demethylation by CYP inhibitors in cynomolgus monkey liver microsomes; details: cynomolgus monkey, cynomolgus monkey liver microsomes, pH 7.4, probe NCMN (various concentrations; formation of NCHN)
[8] = molecular target: T3, CYP1A (NCMN O-demethylation) (Mus musculus, UniProt P00186); assay: Inhibition of NCMN-O-demethylation by CYP inhibitors in mouse liver microsomes; details: mouse, pH 7.4
T3 sequence (P00186 2-513): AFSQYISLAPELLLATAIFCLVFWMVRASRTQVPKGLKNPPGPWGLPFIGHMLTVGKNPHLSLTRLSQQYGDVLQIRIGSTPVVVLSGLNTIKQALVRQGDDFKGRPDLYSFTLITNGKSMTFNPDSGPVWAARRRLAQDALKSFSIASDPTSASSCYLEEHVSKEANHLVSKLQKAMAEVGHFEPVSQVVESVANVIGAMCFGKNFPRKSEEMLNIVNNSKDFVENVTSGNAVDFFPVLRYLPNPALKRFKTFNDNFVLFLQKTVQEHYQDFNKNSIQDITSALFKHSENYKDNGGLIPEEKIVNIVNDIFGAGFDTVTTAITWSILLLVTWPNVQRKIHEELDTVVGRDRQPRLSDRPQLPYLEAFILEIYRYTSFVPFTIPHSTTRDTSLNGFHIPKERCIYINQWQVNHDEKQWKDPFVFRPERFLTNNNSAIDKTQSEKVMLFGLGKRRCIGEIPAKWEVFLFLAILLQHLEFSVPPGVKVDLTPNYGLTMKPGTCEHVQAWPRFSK

[9] = system: CYP1A (NCMN O-demethylation); assay: Inhibition of NCMN-O-demethylation by CYP inhibitors in minipig liver microsomes; details: minipig, pig, minipig liver microsomes, pH 7.4, probe NCMN (various concentrations; formation of NCHN)
[10] = molecular target: T4, CYP1A (NCMN O-demethylation) (Canis lupus familiaris, UniProt P56592); assay: Inhibition of NCMN-O-demethylation by CYP inhibitors in beagle dog liver microsomes; details: beagle, dog, pH 7.4
T4 sequence (P56592 2-512): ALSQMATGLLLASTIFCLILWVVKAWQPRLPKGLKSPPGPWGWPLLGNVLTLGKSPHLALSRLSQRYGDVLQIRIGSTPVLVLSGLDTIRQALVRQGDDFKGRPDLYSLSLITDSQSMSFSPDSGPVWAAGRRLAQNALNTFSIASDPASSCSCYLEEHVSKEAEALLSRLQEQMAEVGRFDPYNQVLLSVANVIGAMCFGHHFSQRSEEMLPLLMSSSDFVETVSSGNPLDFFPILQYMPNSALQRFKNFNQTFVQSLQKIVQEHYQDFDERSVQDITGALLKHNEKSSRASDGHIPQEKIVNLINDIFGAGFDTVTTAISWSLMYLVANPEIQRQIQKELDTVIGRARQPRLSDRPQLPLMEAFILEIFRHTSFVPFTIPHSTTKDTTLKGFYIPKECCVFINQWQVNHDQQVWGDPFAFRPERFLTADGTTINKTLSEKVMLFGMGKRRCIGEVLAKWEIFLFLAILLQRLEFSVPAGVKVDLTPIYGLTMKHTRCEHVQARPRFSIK

[11] = molecular target: T5, CYP1A in human liver microsomes (HLM) (Homo sapiens, UniProt P05177); assay: Inhibition of NCMN-O-demethylation by CYP inhibitors in human liver microsomes; details: 10 µM NCMN, 100 µM furafylline, 10 µM sulfaphenazole, 200 µM troleandomycin, 500 µM 1-ABT
T5 sequence (P05177 2-516): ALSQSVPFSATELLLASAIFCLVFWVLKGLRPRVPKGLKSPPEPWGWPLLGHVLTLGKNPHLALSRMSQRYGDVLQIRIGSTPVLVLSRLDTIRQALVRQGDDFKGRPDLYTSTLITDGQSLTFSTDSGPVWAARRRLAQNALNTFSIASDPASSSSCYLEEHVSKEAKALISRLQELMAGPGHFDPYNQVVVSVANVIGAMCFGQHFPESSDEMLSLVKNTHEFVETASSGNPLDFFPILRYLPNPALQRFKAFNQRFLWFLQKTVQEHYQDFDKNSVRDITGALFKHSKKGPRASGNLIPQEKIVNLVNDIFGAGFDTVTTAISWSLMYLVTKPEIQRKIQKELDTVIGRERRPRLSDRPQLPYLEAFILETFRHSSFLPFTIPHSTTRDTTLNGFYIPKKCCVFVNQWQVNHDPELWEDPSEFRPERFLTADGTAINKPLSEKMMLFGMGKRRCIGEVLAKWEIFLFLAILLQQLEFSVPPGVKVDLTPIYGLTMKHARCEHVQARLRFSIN

[12] = substrate: COc1ccc2c3c(cccc13)C(=O)N(CCCC(=O)O)C2=O; assay: Kinetic analysis of NCMN-O-demethylation in human CYP1A2; assay type: in vitro ADME; details: other: CYP1A2 (human); substrate 1-150 µM; pH 7.4; 37.0 °C
Method: (§1) The formation rates of NCHN were within the linear range of the protein concentration and incubation time. NCMN (1, 2.5, 5, 7.5, 10, 25, 50, 75, 100 and 150 µM) was incubated with HLM, MLM, RLM, DLM, PLM, CyLM (0.25mg protein/mL) as well as rat CYP1A2 (100 nM) for 30min. […] .

[13] = substrate: COc1ccc2c3c(cccc13)C(=O)N(CCCC(=O)O)C2=O; assay: Kinetic analysis of NCMN-O-demethylation in cDNA-expressed rat CYP1A2; assay type: in vitro ADME; details: other: CYP1A2 (Rat), 100 nM; Michaelis-Menten; substrate 1-150 µM; pH 7.4; 37.0 °C
Method: as §1

Row | Molecule | Inhibition of the formation of NCHN [1] | Inhibition of the formation of NCHN [2] | Inhibition of the formation of NCHN [3] | Inhibition of the formation of NCHN [4] | Inhibition of the formation of NCHN [5] | further results
1 | Nn1nnc2ccccc21 [ABT, 1-Aminobenzotriazole] | potently inhibit | potently inhibit | potently inhibit | potently inhibit | potently inhibit | 
2 | Cc1nc2c([nH]1)c(=O)n(C)c(=O)n2Cc1ccco1 [furafylline] | near completely | lower inhibitory effects | near completely | lower inhibitory effects | lower inhibitory effects | IC50 [6]: […]; IC50 [7]: […]; IC50 [8]: 5.73 µM; IC50 [9]: […]; IC50 [10]: 26.8 µM
3 | Nc1ccc(S(=O)(=O)Nc2ccnn2-c2ccccc2)cc1 [sulfaphenazole] | less than 25% | less than 25% | less than 25% | less than 25% | less than 25% | Inhibition of the formation of NCHN [11]: less than 25%
4 | CYP1A2 (human) (Homo sapiens) (protein) MALSQSVPFSATELLLASAIFCLVFWVLKGLRPRVPKGLKSPPEPWGWPLLGHVLTLGKNPHLALSRMSQRYGDVLQIRIGSTPVLVLSRLDTIRQALVRQGDDFKGRPDLYTSTLITDGQSLTFSTDSGPVWAARRRLAQNALNTFSIASDPASSSSCYLEEHVSKEAKALISRLQELMAGPGHFDPYNQVVVSVANVIGAMCFGQHFPESSDEMLSLVKNTHEFVETASSGNPLDFFPILRYLPNPALQRFKAFNQRFLWFLQKTVQEHYQDFDKNSVRDITGALFKHSKKGPRASGNLIPQEKIVNLVNDIFGAGFDTVTTAISWSLMYLVTKPEIQRKIQKELDTVIGRERRPRLSDRPQLPYLEAFILETFRHSSFLPFTIPHSTTRDTTLNGFYIPKKCCVFVNQWQVNHDPELWEDPSEFRPERFLTADGTAINKPLSEKMMLFGMGKRRCIGEVLAKWEIFLFLAILLQQLEFSVPPGVKVDLTPIYGLTMKHARCEHVQARLRFSIN |  |  |  |  |  | Km [12]: 9.80 ± 0.67 µM; kcat [12]: 32.06 ± 0.50 nmol/min/nmol CYP
5 | CYP1A2 (Rat) (Rattus norvegicus) (protein, purchased Research Institute for Liver Diseases (RILD, Shanghai, China) Lot.int066e1c) MAFSQYISLAPELLLATAIFCLVFWVLRGTRTQVPKGLKSPPGPWGLPFIGHMLTLGKNPHLSLTKLSQQYGDVLQIRIGSTPVVVLSGLNTIKQALVKQGDDFKGRPDLYSFTLITNGKSMTFNPDSGPVWAARRRLAQDALKSFSIASDPTSVSSCYLEEHVSKEANHLISKFQKLMAEVGHFEPVNQVVESVANVIGAMCFGKNFPRKSEEMLNLVKSSKDFVENVTSGNAVDFFPVLRYLPNPALKRFKNFNDNFVLFLQKTVQEHYQDFNKNSIQDITGALFKHSENYKDNGGLIPQEKIVNIVNDIFGAGFETVTTAIFWSILLLVTEPKVQRKIHEELDTVIGRDRQPRLSDRPQLPYLEAFILEIYRYTSFVPFTIPHSTTRDTSLNGFHIPKECCIFINQWQVNHDEKQWKDPFVFRPERFLTNDNTAIDKTLSEKVMLFGLGKRRCIGEIPAKWEVFLFLAILLHQLEFTVPPGVKVDLTPSYGLTMKPRTCEHVQAWPRFSK |  |  |  |  |  | Km [13]: 4.04 ± 0.16 µM; kcat [13]: 7.48±0.05 nmol/min/nmol CYP
